Data set [1] is described as follows: Pharmacokinetic investigation in mice (PO and IP). In kind it is in vivo, mice of BALB/c line. The settings on record: BALB/c, mouse, plasma; for half-life: read-out: T½. The method, then: Pharmacokinetic investigations were carried out on mice of BALB/c line. All animals were divided into three groups in a random manner: two experimental groups were used for pharmacokinetic analyses at peroral (PO) and intraperitoneal (IP) ways of substance introduction in various doses, and the control group for getting intact blood plasma.
Blood samples were taken by decapitation of animals before introduction of medicament (control samples), and by decapitation in 5, 15, 30, 60, 120 and 240 minutes after introduction of medicament. Three mice were used for each time interval point.
Analysis of samples comprising compounds of the general formulas I-VIII was carried out by Chromato-Mass-Spectrometry method. The data were analysed by means of software package WinNonLin (Pharsight, CIIIA).
Oral bioavailability % F of compounds of the general formulas I-VIII was calculated on the basis of experimental results according to the following equation: % F=[AUC0→t,(PO)/AUC0→t,(IP)]×100%.

For a further data set, the target named is T1, Smo receptors (Homo sapiens, UniProt Q99835).
T1 construct: expressed in transfected cells; host or cells: HEK cells (Smo-HEK)
T1 sequence (Q99835 28-787): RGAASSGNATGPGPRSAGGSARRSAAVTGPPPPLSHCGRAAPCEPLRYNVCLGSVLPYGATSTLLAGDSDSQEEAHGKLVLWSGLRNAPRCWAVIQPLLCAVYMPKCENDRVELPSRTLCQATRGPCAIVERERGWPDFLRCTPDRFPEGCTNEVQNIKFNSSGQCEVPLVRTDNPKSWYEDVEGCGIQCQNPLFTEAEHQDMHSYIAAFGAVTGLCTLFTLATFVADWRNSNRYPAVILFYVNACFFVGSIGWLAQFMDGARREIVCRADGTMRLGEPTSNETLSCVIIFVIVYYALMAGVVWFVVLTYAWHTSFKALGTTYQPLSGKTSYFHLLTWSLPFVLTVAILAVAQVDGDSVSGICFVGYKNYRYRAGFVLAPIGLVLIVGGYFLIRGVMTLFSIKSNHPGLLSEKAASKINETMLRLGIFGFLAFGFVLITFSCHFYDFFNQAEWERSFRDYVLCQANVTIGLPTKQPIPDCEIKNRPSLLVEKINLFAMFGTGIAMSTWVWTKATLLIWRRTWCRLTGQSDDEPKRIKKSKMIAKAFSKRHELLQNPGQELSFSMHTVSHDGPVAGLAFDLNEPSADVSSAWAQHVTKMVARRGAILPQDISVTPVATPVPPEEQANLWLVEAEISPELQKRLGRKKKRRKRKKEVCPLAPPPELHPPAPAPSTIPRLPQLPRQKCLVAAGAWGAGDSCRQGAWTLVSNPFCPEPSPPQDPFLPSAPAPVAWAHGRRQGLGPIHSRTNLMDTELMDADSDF
Kind of data set: Displacement of bodipy-cyclopamine from Smo receptors in Smo-HEK cells. It counts as binding. Conditions: half-maximal displacement of bodipy-cyclopamine. How it is done: Binding parameters to Smo receptors for some of compounds of the general formulas I-VIII are presented in table 11 as the values of half-maximal displacement of cyclopamine labelled with fluorescent dye (bodipy-cyclopamine). The tests were carried out for Smo-HEK cells, comprising artificially expressed protein Smo.

Data set [2] can be described thus: Pharmacokinetic investigation in mice (PO and IP). In kind it is in vivo, mice of BALB/c line. The settings on record: BALB/c, mouse, plasma, read-out: % F (PO/IV).
Data set [3] relates to human's pancreatic carcinoma Panc1. Kind of data set: Antitumour activity in Panc1 xenograft mice model. In kind it is in vivo, mice Balb-c/nude. The method, then: Example of antitumour activity of compound III-1029 towards human's pancreatic carcinoma model Panc1, implanted to immunodeficient transgenic (naked) mice Balb-c/nude, is presented in FIG. 3. Mice of 8 weeks age which were implanted with pancreatic carcinoma by injection of 4×10^6 tumour cells were used in the experiments. Introduction of tested compound (peroral 50 mg/kg, daily during 14 days) was started in 7 days after transplantation of tumour (an average size of tumour was 30-60 mm^3). As a result of the tests it was shown that under the said way of introduction compound III-1029 suppresses tumour growth on 67% in comparison with the control group (mice with implanted tumour not treated with compound III-1029).
Example of antitumour activity of compounds III-1017 and III-1011 towards human's pancreatic carcinoma Panc1, implanted to immunodeficient transgenic (naked) mice Balb-c/nude, is presented in FIG. 4. Mice of 8 weeks age which were implanted with pancreatic carcinoma by injection of 4×10^7 tumour cells were used in the experiments. Introduction of tested compound (intraperitoneally […], daily during 21 days) was started in 8 days after transplantation of tumour (an average size of tumour is 60-140 mm^3). As a result of the tests it was shown that under the said way of introduction compounds III-1017 and III-1011 suppress tumour growth on 27 and 46% in comparison with the control group (mice with implanted tumour not treated with the tested compounds).

A short description of data set [4]: Maximum tolerated dose, intraperitoneal once daily for 5 days. The settings on record: mouse, in vivo, ip, male SHK mice. How it is done: Maximum tolerated dose of compounds was determined in tests on male mice of SHK line by intraperitoneal once daily introduction of the compounds in doses from 30 to 300 mg/kg during 5 days. 8 Mice were used in each group. Weight of mice and also animals' mortality were registered. […] According to the classification of chemical compounds toxicity the investigated compounds may be referred to low-toxic substances.

Another data set concerns Hh-signalling cascade. Kind of data set: Inhibition of SHh-induced alkaline phosphatase in C3H10T1/2 cells (Hh-signalling cascade inhibition). In kind it is cell-based. The settings on record: Mus musculus, C3H 10T1/2, half maximal inhibition of SHh (0.3 μg/ml) stimulation of cell alkaline phosphatase. The method in brief:
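C3H10T1/2 cells preincubated 30 min with compound (screen at 10 μM; IC50 from triplicate dilution series), then stimulated with 0.3 μg/ml recombinant SHh for 3 days at 37 °C. Alkaline phosphatase measured by CSPD luminescence in 0.2% Triton-X100 lysates; IC50 = half-maximal inhibition of SHh-induced activity.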

For data set [5], the system named is transcription factor Gli1. The data set can be described thus: Suppression of transcription factor Gli1 induction in Panc1 cell culture. It counts as cell-based, human. Conditions: 20 mkM, 72 hours, Panc1 cells. The method, then: Examples of suppression of the transcription factor Gli1 induction in human's tumor cell culture Panc1 by compounds of the general formulas I-VIII are presented in FIG. 2. […] This effect could be enhanced at combined action of the tested compound and kinas inhibitor (oncolitic Iressa). For caning out the experiments the tumour cell culture Panc1 was cultivated for 72 hours in the presence of 20 mkM of tested compounds.
Measurements of expression level Gli1 were carried out by determination of HGli mRNA amount according to the method [Lauth M., Bergstrom A., Shimokawa T., Toftgard R. Inhibition of GLI-mediated transcription and tumor cell growth by small-molecule antagonists. PNAS. 2007, 104(20): 8455-8460].

The mark [6] stands for this setting: intraperitoneally 100 m mg/kg, daily during 21 days.

The record followed here is patent US8486945B2, “Heterocyclic inhibitors of an Hh-signal cascade, medicinal compositions based thereon and methods for treating diseases caused by the aberrant activity of an Hh-signal system” (priority 2007, dated 2013).

Like-named read-outs stand apart in the source and are kept apart here.

Usually Cmax stands for the maximum level reached in the sampled fluid or tissue. The IC50 is the midpoint of a concentration-inhibition curve. In general, MTD refers to the largest dose that counted as tolerated. Lower therefore signals poorer tolerability. Regarding `Cc1cccn2cc(-c3ccc(NC(=O)c4ccccc4F)cc3)nc12` [III-1011, 2-Fluoro-N-[4-(8-methylimidazo[1,2-a]pyridin-2-yl)phenyl]benzamide], in data set [1] (IP, 5 mg/Kg), the Cmax amounted to 1040 ng/mL and the half-life came out at 44 min. Moreover, in data set [1] (PO, 5 mg/Kg), the Cmax was 564 ng/mL and the half-life was 58 min. The same compound displayed an IC50 at Smo receptors of 93 nM. The bioavailability in data set [2] amounted to 64%. For the same compound, the “Suppression of tumour growth in comparison with the control group” value (“Suppression of tumour growth” for short) in data set [3] (setting [6]) was 46%. In data set [4], this compound displayed a maximum tolerated dose (MTD) at 5 days greater than 200 mg/kg.
In turn, `Cc1ccn2cc(-c3cccc(NC(=O)c4sc(-c5ccccc5)nc4C)c3)nc2c1` [III-1017, 4-Methyl-2-phenylthiazol-5-carboxylic acid [3-(7-methylimidazo[1,2-a]pyridin-2-yl)phenyl]amide] gave an IC50 in the data set on Hh-signalling cascade of less than 500 nM. For the same compound, the peak concentration (Cmax) in data set [1] (IP, 5 mg/Kg) was determined as 357 ng/mL; in data set [1] (PO, 5 mg/Kg), 398 ng/mL. The half-life in data set [1] (IP, 5 mg/Kg) worked out at 67 min; in data set [1] (PO, 5 mg/Kg), 55 min. Further, in data set [2], the bioavailability came to 19%. Further, the “Suppression of tumour growth” value in data set [3] (setting [6]) is listed as 27%. This compound came in with an MTD at 5 days in data set [4] greater than 200 mg/kg.
Turning to `Cc1cccn2cc(-c3ccc(NC(=O)c4ccccc4Br)cc3)nc12` [III-1029, N-[4-(8-Methylimidazo[1,2-a]pyridin-2-yl)phenyl]-2-bromobenzamide], in data set [5], the “Suppression of Gli1 expression (HGli mRNA)” value is reported as “block effectively Hh-signalling cascade”. Besides, the IC50 in the data set on Hh-signalling cascade is less than 500 nM; on Smo receptors it was 259 nM. Further, the half-life in data set [1] (PO, dose not given) was found to be 59 min. Also, the bioavailability in data set [2] was found to be 75%. For the same compound, the “Suppression of tumour growth” value in data set [3] (peroral 50 mg/kg, daily during 14 days) is on record as 67%. The same compound had a maximal tolerated dose (MTD) at 5 days in data set [4] greater than 200 mg/kg.
